Assay results as given in PubChem BioAssay (NCI).
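Following 48 hours of exposure in 96-well plates, responses at five concentrations were used to interpolate endpoints linearly. The concentration for full growth arrest is given as TGI.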

Assays:
Assay in all cases: growth of human tumour cells (NCI), 48 h
786-0 renal = system: 786-0 renal
A498 renal = system: A498 renal
A549 NSCLC = system: A549 NSCLC
ACHN renal = system: ACHN renal
BT-549 breast = system: BT-549 breast
CAKI-1 renal = system: CAKI-1 renal
CCRF-CEM leukemia = system: CCRF-CEM leukemia
COLO 205 colon = system: COLO 205 colon
EKVX NSCLC = system: EKVX NSCLC
HCC-2998 colon = system: HCC-2998 colon
HCT-116 colon = system: HCT-116 colon
HCT-15 colon = system: HCT-15 colon
HOP-62 NSCLC = system: HOP-62 NSCLC
IGROV1 ovarian = system: IGROV1 ovarian
KM12 colon = system: KM12 colon
LOX IMVI melanoma = system: LOX IMVI melanoma
M14 melanoma = system: M14 melanoma
MALME-3M melanoma = system: MALME-3M melanoma
MCF7 breast = system: MCF7 breast
MDA-MB-231 breast = system: MDA-MB-231 breast
MDA-MB-435 = system: MDA-MB-435
MDA-N = system: MDA-N
MOLT-4 leukemia = system: MOLT-4 leukemia
NCI-H226 lung = system: NCI-H226 lung
NCI-H23 lung = system: NCI-H23 lung
NCI-H460 lung = system: NCI-H460 lung
NCI-H522 lung = system: NCI-H522 lung
NCI/ADR-RES ovarian = system: NCI/ADR-RES ovarian
OVCAR-3 ovarian = system: OVCAR-3 ovarian
OVCAR-4 ovarian = system: OVCAR-4 ovarian
OVCAR-5 ovarian = system: OVCAR-5 ovarian
OVCAR-8 ovarian = system: OVCAR-8 ovarian
PC-3 prostate = system: PC-3 prostate
RPMI-8226 leukemia = system: RPMI-8226 leukemia
RXF 393 renal = system: RXF 393 renal
SF-268 CNS = system: SF-268 CNS
SF-295 CNS = system: SF-295 CNS
SF-539 CNS = system: SF-539 CNS
SK-MEL-2 melanoma = system: SK-MEL-2 melanoma
SK-MEL-28 melanoma = system: SK-MEL-28 melanoma
SK-MEL-5 melanoma = system: SK-MEL-5 melanoma
SK-OV-3 ovarian = system: SK-OV-3 ovarian
SN12C renal = system: SN12C renal
SNB-19 CNS = system: SNB-19 CNS
SNB-75 CNS = system: SNB-75 CNS
SW-620 colon = system: SW-620 colon
T-47D breast = system: T-47D breast
TK-10 renal = system: TK-10 renal
U251 CNS = system: U251 CNS
UACC-257 melanoma = system: UACC-257 melanoma
UO-31 renal = system: UO-31 renal
DU-145 prostate = system: DU-145 prostate
HL-60(TB) leukemia = system: HL-60(TB) leukemia
HOP-92 NSCLC = system: HOP-92 NSCLC
HS 578T breast = system: HS 578T breast
HT29 colon = system: HT29 colon
K-562 leukemia = system: K-562 leukemia
SR leukemia = system: SR leukemia
UACC-62 melanoma = system: UACC-62 melanoma

`CC(C)=CCCC1(Sc2ccccc2)C(=O)OCC1C=C(C)C` (stereo unspecified) showed a TGI (786-0 renal) of 73.7 µM, a TGI (A498 renal) of over 100 µM and a TGI (A549 NSCLC) of 78.1 µM. For the same molecule, the TGI (ACHN renal) was over 100 µM, the TGI (BT-549 breast) was over 100 µM and the TGI (CAKI-1 renal) was over 100 µM. For the same molecule, the TGI (CCRF-CEM leukemia) was over 100 µM, the TGI (COLO 205 colon) was 50 µM and the TGI (EKVX NSCLC) was 79.7 µM. It also gave a TGI (HCC-2998 colon) of over 100 µM, a TGI (HCT-116 colon) of 45.8 µM and a TGI (HCT-15 colon) of over 100 µM. It also gave a TGI (HOP-62 NSCLC) of over 100 µM, a TGI (IGROV1 ovarian) of 60.4 µM and a TGI (KM12 colon) of over 100 µM. For the same molecule, the TGI (LOX IMVI melanoma) was 30.1 µM, the TGI (M14 melanoma) was 52.1 µM and the TGI (MALME-3M melanoma) was 40.7 µM. The TGI (MCF7 breast) was over 100 µM, the TGI (MDA-MB-231 breast) was over 100 µM and the TGI (MDA-MB-435) was over 100 µM. For the same molecule, the TGI (MDA-N) was 66.1 µM, the TGI (MOLT-4 leukemia) was 20.4 µM and the TGI (NCI-H226 lung) was 73.7 µM. The TGI (NCI-H23 lung) was over 100 µM, the TGI (NCI-H460 lung) was over 100 µM and the TGI (NCI-H522 lung) was 47.4 µM. It also gave a TGI (NCI/ADR-RES ovarian) of over 100 µM, a TGI (OVCAR-3 ovarian) of 42.8 µM and a TGI (OVCAR-4 ovarian) of over 100 µM. The TGI (OVCAR-5 ovarian) was 59 µM, the TGI (OVCAR-8 ovarian) was over 100 µM and the TGI (PC-3 prostate) was over 100 µM. For the same molecule, the TGI (RPMI-8226 leukemia) was 48.1 µM, the TGI (RXF 393 renal) was 45.1 µM and the TGI (SF-268 CNS) was over 100 µM. The TGI (SF-295 CNS) was over 100 µM, the TGI (SF-539 CNS) was 47.9 µM and the TGI (SK-MEL-2 melanoma) was 55.8 µM. It also gave a TGI (SK-MEL-28 melanoma) of over 100 µM, a TGI (SK-MEL-5 melanoma) of 36.7 µM and a TGI (SK-OV-3 ovarian) of over 100 µM. For the same molecule, the TGI (SN12C renal) was 46.1 µM, the TGI (SNB-19 CNS) was over 100 µM and the TGI (SNB-75 CNS) was over 100 µM. For the same molecule, the TGI (SW-620 colon) was over 100 µM, the TGI (T-47D breast) was over 100 µM and the TGI (TK-10 renal) was over 100 µM. For the same molecule, the TGI (U251 CNS) was over 100 µM, the TGI (UACC-257 melanoma) was 83 µM and the TGI (UO-31 renal) was over 100 µM.

Molecule `O=C(O)C1C(=O)Oc2c(cccc2[N+](=O)[O-])C1O` (stereo unspecified) has a TGI (786-0 renal) of over 100 µM, a TGI (A498 renal) of over 100 µM and a TGI (A549 NSCLC) of over 100 µM. It also gave a TGI (ACHN renal) of over 100 µM, a TGI (BT-549 breast) of over 100 µM and a TGI (CAKI-1 renal) of over 100 µM. The TGI (CCRF-CEM leukemia) was over 100 µM, the TGI (COLO 205 colon) was over 100 µM and the TGI (DU-145 prostate) was over 100 µM. The TGI (EKVX NSCLC) was over 100 µM, the TGI (HCC-2998 colon) was over 100 µM and the TGI (HCT-116 colon) was over 100 µM. It also gave a TGI (HCT-15 colon) of over 100 µM, a TGI (HL-60(TB) leukemia) of over 100 µM and a TGI (HOP-62 NSCLC) of over 100 µM. It also gave a TGI (HOP-92 NSCLC) of over 100 µM, a TGI (HS 578T breast) of over 100 µM and a TGI (HT29 colon) of over 100 µM. The TGI (IGROV1 ovarian) was over 100 µM, the TGI (K-562 leukemia) was over 100 µM and the TGI (LOX IMVI melanoma) was over 100 µM. It also gave a TGI (M14 melanoma) of over 100 µM, a TGI (MALME-3M melanoma) of over 100 µM and a TGI (MDA-MB-231 breast) of over 100 µM. It also gave a TGI (MDA-MB-435) of over 100 µM, a TGI (MDA-N) of over 100 µM and a TGI (MOLT-4 leukemia) of over 100 µM. It also gave a TGI (NCI-H226 lung) of over 100 µM, a TGI (NCI-H23 lung) of over 100 µM and a TGI (NCI-H460 lung) of over 100 µM. For the same molecule, the TGI (NCI-H522 lung) was over 100 µM, the TGI (NCI/ADR-RES ovarian) was over 100 µM and the TGI (OVCAR-3 ovarian) was over 100 µM. It also gave a TGI (OVCAR-4 ovarian) of over 100 µM, a TGI (OVCAR-5 ovarian) of over 100 µM and a TGI (OVCAR-8 ovarian) of over 100 µM. For the same molecule, the TGI (PC-3 prostate) was over 100 µM, the TGI (RPMI-8226 leukemia) was over 100 µM and the TGI (RXF 393 renal) was over 100 µM. The TGI (SF-268 CNS) was over 100 µM, the TGI (SF-295 CNS) was over 100 µM and the TGI (SF-539 CNS) was over 100 µM. It also gave a TGI (SK-MEL-2 melanoma) of over 100 µM, a TGI (SK-MEL-28 melanoma) of over 100 µM and a TGI (SK-MEL-5 melanoma) of over 100 µM. It also gave a TGI (SN12C renal) of over 100 µM, a TGI (SNB-19 CNS) of over 100 µM and a TGI (SNB-75 CNS) of over 100 µM. For the same molecule, the TGI (SR leukemia) was over 100 µM, the TGI (SW-620 colon) was over 100 µM and the TGI (T-47D breast) was over 100 µM. For the same molecule, the TGI (TK-10 renal) was over 100 µM, the TGI (U251 CNS) was over 100 µM and the TGI (UACC-257 melanoma) was over 100 µM. For the same molecule, the TGI (UACC-62 melanoma) was over 100 µM.
